{"source": "ChEMBL document CHEMBL4390667", "about": "“Novel tacrine-tryptophan hybrids: Multi-target directed ligands as potential treatment for Alzheimer's disease” (Eur J Med Chem, 2019)", "key": {"Acetylcholinesterase": {"target": "Acetylcholinesterase (Homo sapiens, UniProt P22303)", "sequence (P22303 whole entry)": "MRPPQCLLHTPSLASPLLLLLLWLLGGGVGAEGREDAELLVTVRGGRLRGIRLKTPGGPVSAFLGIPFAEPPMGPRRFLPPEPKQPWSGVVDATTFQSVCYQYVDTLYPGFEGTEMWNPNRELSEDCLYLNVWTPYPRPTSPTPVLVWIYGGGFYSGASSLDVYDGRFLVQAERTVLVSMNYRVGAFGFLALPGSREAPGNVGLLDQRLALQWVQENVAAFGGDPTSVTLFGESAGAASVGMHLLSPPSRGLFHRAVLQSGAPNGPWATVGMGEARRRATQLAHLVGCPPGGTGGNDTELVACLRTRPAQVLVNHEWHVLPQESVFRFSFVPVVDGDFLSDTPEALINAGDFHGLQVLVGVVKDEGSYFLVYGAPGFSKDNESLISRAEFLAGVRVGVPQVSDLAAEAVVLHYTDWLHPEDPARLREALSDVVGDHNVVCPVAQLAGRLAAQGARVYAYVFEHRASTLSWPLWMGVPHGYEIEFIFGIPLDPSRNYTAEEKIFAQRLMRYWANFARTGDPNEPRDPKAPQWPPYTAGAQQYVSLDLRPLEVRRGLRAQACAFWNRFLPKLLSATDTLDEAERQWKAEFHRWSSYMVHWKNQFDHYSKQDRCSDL", "description": "Inhibition of human recombinant AChE using acetylthiocholine iodide as substrate preincubated for 5 mins followed by substrate addition and measured over 2 mins by UV-Vis spectrophotometric analysis based Ellman's method"}, "Cholinesterase": {"target": "Cholinesterase (Homo sapiens, UniProt P06276)", "sequence (P06276 whole entry)": "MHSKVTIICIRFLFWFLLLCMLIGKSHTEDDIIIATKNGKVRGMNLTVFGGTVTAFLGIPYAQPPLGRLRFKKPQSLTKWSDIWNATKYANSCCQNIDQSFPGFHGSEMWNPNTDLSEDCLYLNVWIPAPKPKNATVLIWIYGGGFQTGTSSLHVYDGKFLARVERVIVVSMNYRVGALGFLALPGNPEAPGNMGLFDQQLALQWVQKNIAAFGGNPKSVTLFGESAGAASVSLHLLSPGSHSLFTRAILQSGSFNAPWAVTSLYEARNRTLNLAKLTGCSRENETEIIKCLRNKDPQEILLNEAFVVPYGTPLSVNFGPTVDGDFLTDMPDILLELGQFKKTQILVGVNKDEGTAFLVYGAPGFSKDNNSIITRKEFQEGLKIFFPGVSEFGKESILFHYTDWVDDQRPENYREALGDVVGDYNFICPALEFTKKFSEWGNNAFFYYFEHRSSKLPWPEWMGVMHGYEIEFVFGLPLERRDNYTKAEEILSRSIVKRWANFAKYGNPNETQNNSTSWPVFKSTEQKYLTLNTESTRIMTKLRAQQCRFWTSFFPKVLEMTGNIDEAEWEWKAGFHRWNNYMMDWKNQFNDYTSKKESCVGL", "description": "Inhibition of human recombinant BChE using butyrylthiocholine iodide as substrate preincubated for 5 mins followed by substrate addition and measured over 2 mins by UV-Vis spectrophotometric analysis based Ellman's method"}, "Nitric oxide synthase 1": {"target": "Nitric oxide synthase 1 (Rattus norvegicus, UniProt P29476)", "sequence (P29476 whole entry, looked up)": "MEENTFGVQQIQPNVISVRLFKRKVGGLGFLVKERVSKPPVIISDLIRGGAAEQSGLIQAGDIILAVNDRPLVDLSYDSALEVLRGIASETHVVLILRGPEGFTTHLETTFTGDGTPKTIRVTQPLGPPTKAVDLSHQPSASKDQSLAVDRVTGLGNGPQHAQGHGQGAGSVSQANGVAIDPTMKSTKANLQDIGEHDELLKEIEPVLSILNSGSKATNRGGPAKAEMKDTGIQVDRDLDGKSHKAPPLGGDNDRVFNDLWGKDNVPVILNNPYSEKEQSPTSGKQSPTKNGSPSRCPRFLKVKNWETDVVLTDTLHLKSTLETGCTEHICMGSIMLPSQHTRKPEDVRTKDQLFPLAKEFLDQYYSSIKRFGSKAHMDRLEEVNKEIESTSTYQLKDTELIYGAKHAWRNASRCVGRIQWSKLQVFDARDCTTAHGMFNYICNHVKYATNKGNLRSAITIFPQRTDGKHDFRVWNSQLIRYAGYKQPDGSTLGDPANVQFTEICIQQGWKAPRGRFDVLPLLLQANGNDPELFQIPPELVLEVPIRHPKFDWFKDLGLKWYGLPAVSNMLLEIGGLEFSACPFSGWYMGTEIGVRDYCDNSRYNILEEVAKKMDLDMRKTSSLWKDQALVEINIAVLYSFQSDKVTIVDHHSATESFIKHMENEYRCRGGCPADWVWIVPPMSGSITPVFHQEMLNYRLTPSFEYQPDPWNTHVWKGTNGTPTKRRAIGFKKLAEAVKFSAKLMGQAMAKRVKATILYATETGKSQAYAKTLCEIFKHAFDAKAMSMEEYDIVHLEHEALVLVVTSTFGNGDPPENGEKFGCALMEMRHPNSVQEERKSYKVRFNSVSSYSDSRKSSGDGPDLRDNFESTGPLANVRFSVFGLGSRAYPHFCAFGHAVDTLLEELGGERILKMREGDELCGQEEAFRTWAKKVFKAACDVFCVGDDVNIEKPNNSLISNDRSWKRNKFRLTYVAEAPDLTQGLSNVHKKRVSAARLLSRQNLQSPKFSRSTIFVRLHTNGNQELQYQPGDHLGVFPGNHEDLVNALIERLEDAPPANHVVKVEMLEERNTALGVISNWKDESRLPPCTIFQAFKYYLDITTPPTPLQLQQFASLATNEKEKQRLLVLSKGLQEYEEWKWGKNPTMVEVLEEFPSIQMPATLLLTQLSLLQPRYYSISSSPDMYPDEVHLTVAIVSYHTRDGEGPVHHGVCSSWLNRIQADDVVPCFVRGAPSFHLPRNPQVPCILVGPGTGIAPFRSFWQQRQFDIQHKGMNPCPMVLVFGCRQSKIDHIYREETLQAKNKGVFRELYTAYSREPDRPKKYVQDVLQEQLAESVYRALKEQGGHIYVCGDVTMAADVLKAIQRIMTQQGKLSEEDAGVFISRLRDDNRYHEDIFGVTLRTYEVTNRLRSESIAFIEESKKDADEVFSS", "description": "Inhibition of nNOS in Wistar rat cortical homogenates incubated for 30 mins"}, "CHO-K1": {"tested_on": "CHO-K1", "test": "cells", "conditions": "Cricetulus griseus, CHO-K1, 24 h", "description": "Cytotoxicity against CHOK1 cells assessed as reduction in cell viability incubated for 24 hrs by MTT assay"}, "HepG2": {"tested_on": "HepG2", "test": "cells", "conditions": "Homo sapiens, HepG2, 24 h", "description": "Cytotoxicity against human HepG2 cells assessed as reduction in cell viability incubated for 24 hrs by MTT assay"}, "[1]": {"conditions": "pampa, pH 7.4, 100 µM", "description": "Effective permeability of the compound in PBS buffer at pH 7.4 at 100 uM after 3 to 6 hrs by PAMPA"}}}
{"smiles": "N[C@@H](Cc1c[nH]c2ccccc12)C(=O)NCCNc1c2c(nc3cc(Cl)ccc13)CCCC2", "values": [{"measurement": "IC50", "setting": "Acetylcholinesterase", "result": 160, "unit": "nM"}, {"measurement": "IC50", "setting": "Cholinesterase", "result": 340, "unit": "nM"}, {"measurement": "IC50", "setting": "Nitric oxide synthase 1", "result": 39, "unit": "µM"}, {"measurement": "IC50", "setting": "CHO-K1", "result": 26, "unit": "µM"}]}
{"smiles": "COc1ccc2nc3c(c(NCCCCCCCNC(=O)[C@@H](N)Cc4c[nH]c5ccccc45)c2c1)CCCC3", "values": [{"measurement": "IC50", "setting": "Acetylcholinesterase", "result": 980, "unit": "nM"}, {"measurement": "IC50", "setting": "Cholinesterase", "result": 78, "unit": "nM"}, {"measurement": "IC50", "setting": "Nitric oxide synthase 1", "result": 26, "unit": "µM"}, {"measurement": "IC50", "setting": "CHO-K1", "result": 14, "unit": "µM"}, {"measurement": "IC50", "setting": "HepG2", "result": 5.6, "unit": "µM"}]}
{"smiles": "Cl.Cl.N[C@H](Cc1c[nH]c2ccccc12)C(=O)NCCCCCCNc1c2c(nc3cc(Cl)ccc13)CCCC2", "values": [{"measurement": "IC50", "setting": "Acetylcholinesterase", "result": 6.9, "unit": "nM"}, {"measurement": "IC50", "setting": "Cholinesterase", "result": 140, "unit": "nM"}, {"measurement": "IC50", "setting": "Nitric oxide synthase 1", "result": 26, "unit": "µM"}, {"measurement": "permeability", "setting": "[1]", "result": "Permeable"}, {"measurement": "IC50", "setting": "CHO-K1", "result": 15, "unit": "µM"}, {"measurement": "IC50", "setting": "HepG2", "result": 4.2, "unit": "µM"}]}
{"smiles": "COc1ccc2nc3c(c(NCCNC(=O)[C@@H](N)Cc4c[nH]c5ccccc45)c2c1)CCCC3.Cl.Cl", "values": [{"measurement": "IC50", "setting": "Acetylcholinesterase", "result": 5700, "unit": "nM"}, {"measurement": "IC50", "setting": "Cholinesterase", "result": 480, "unit": "nM"}, {"measurement": "IC50", "setting": "Nitric oxide synthase 1", "result": 19, "unit": "µM"}, {"measurement": "permeability", "setting": "[1]", "result": "Impermeable"}, {"measurement": "IC50", "setting": "CHO-K1", "result": 131, "unit": "µM"}]}
{"smiles": "CNC(=N)NCCC[C@H](N)C(=O)OC", "values": [{"measurement": "IC50", "setting": "Nitric oxide synthase 1", "result": 4.1, "unit": "µM"}]}
{"smiles": "COc1ccc2nc3c(c(N)c2c1)CCCC3", "values": [{"measurement": "permeability", "setting": "[1]", "result": "Permeable"}, {"measurement": "IC50", "setting": "CHO-K1", "result": 63, "unit": "µM"}, {"measurement": "IC50", "setting": "HepG2", "result": 120, "unit": "µM"}]}
{"smiles": "O=C(CCCCCCNc1c2c(nc3cccc(Cl)c13)CCCC2)NCCc1c[nH]c2ccccc12", "values": [{"measurement": "IC50", "setting": "Acetylcholinesterase", "result": 0.008, "unit": "nM"}, {"measurement": "IC50", "setting": "Cholinesterase", "result": 7.8, "unit": "nM"}]}
{"smiles": "Cl.Cl.N[C@@H](Cc1c[nH]c2ccccc12)C(=O)NCCCCCCCNc1c2c(nc3cc(Cl)ccc13)CCCC2", "values": [{"measurement": "IC50", "setting": "Acetylcholinesterase", "result": 19, "unit": "nM"}, {"measurement": "IC50", "setting": "Cholinesterase", "result": 52, "unit": "nM"}, {"measurement": "IC50", "setting": "Nitric oxide synthase 1", "result": 27, "unit": "µM"}, {"measurement": "permeability", "setting": "[1]", "result": "Permeable"}, {"measurement": "IC50", "setting": "CHO-K1", "result": 24, "unit": "µM"}, {"measurement": "IC50", "setting": "HepG2", "result": 6, "unit": "µM"}]}
{"smiles": "c1ccc2c(NCCCCCCCNc3c4c(nc5ccccc35)CCCC4)c3c(nc2c1)CCCC3", "values": [{"measurement": "IC50", "setting": "Nitric oxide synthase 1", "result": 2.9, "unit": "µM"}]}
{"smiles": "Cl.Cl.N[C@@H](Cc1c[nH]c2ccccc12)C(=O)NCCCCCCCNc1c2c(nc3ccccc13)CCCC2", "values": [{"measurement": "IC50", "setting": "Acetylcholinesterase", "result": 120, "unit": "nM"}, {"measurement": "IC50", "setting": "Cholinesterase", "result": 25, "unit": "nM"}, {"measurement": "IC50", "setting": "Nitric oxide synthase 1", "result": 32, "unit": "µM"}, {"measurement": "permeability", "setting": "[1]", "result": "Impermeable"}, {"measurement": "IC50", "setting": "CHO-K1", "result": 248, "unit": "µM"}]}
{"smiles": "COc1ccc2nc3c(c(NCCCCCCCCNC(=O)[C@@H](N)Cc4c[nH]c5ccccc45)c2c1)CCCC3", "values": [{"measurement": "IC50", "setting": "Acetylcholinesterase", "result": 1300, "unit": "nM"}, {"measurement": "IC50", "setting": "Cholinesterase", "result": 130, "unit": "nM"}, {"measurement": "IC50", "setting": "Nitric oxide synthase 1", "result": 45, "unit": "µM"}, {"measurement": "IC50", "setting": "CHO-K1", "result": 43, "unit": "µM"}]}
{"smiles": "O=C(CCCCCNc1c2c(nc3cc(Cl)ccc13)CCCC2)NCCc1cc2ccccc2[nH]1", "values": [{"measurement": "IC50", "setting": "Acetylcholinesterase", "result": 0.73, "unit": "nM"}, {"measurement": "IC50", "setting": "Cholinesterase", "result": 180, "unit": "nM"}, {"measurement": "permeability", "setting": "[1]", "result": "Permeable"}]}
{"smiles": "N[C@@H](Cc1c[nH]c2ccccc12)C(=O)NCCCCNc1c2c(nc3cc(Cl)ccc13)CCCC2", "values": [{"measurement": "IC50", "setting": "Acetylcholinesterase", "result": 62, "unit": "nM"}, {"measurement": "IC50", "setting": "Cholinesterase", "result": 120, "unit": "nM"}, {"measurement": "IC50", "setting": "Nitric oxide synthase 1", "result": 26, "unit": "µM"}, {"measurement": "IC50", "setting": "CHO-K1", "result": 16, "unit": "µM"}]}
{"smiles": "COc1ccc2nc3c(c(NCCCNC(=O)[C@@H](N)Cc4c[nH]c5ccccc45)c2c1)CCCC3.Cl.Cl", "values": [{"measurement": "IC50", "setting": "Acetylcholinesterase", "result": 1300, "unit": "nM"}, {"measurement": "IC50", "setting": "Cholinesterase", "result": 1800, "unit": "nM"}, {"measurement": "IC50", "setting": "Nitric oxide synthase 1", "result": 30, "unit": "µM"}, {"measurement": "permeability", "setting": "[1]", "result": "Impermeable"}, {"measurement": "IC50", "setting": "CHO-K1", "result": 95, "unit": "µM"}]}
{"smiles": "Cl.Cl.N[C@@H](Cc1c[nH]c2ccccc12)C(=O)NCCCNc1c2c(nc3ccccc13)CCCC2", "values": [{"measurement": "IC50", "setting": "Acetylcholinesterase", "result": 580, "unit": "nM"}, {"measurement": "IC50", "setting": "Cholinesterase", "result": 40, "unit": "nM"}, {"measurement": "IC50", "setting": "Nitric oxide synthase 1", "result": 32, "unit": "µM"}, {"measurement": "permeability", "setting": "[1]", "result": "Impermeable"}, {"measurement": "IC50", "setting": "CHO-K1", "result": 116, "unit": "µM"}]}
